Source: paper PMC8729770, “In Vitro Evaluation of Antimicrobial Peptides from the Black Soldier Fly (Hermetia Illucens) against a Selection of Human Pathogens” (Microbiology Spectrum, 2022)
≈ marks a conversion by molar mass, not a printed value. Like-named read-outs stand apart in the source and are kept apart here. Ends that are not written are not given here. Peptide text beside a SMILES is read from it.

Columns and labels:
[1] = system: MRC5-SV2 cell line of human, embryonic lung fibroblasts; assay: Cytotoxicity screening of the peptide library; assay type: cell-based; conditions: 72 h, 37°C, resazurin fluorescence
Method: To determine early signs of peptide toxicity, the library was tested against the MRC5-SV2 cell line of human, embryonic lung fibroblasts (Sigma-Aldrich). Peptides were serially diluted in 96-well plates as described earlier at concentrations ranging from 64 μM to 0.25 μM for the first screening, and from 32 μM to 0.016 μM for the independent repeat. Tamoxifen (Sigma-Aldrich) was included as a reference compound. After preparation of the test plates, cell suspension (190 μL) of 1.5 × 10^5 cells/mL in complete minimum essential medium (Gibco) was added to the peptides. Plates were incubated for 72 h at 37°C in a 5% CO2 incubator (Binder). Afterwards, 50 μL of a 0.01% (wt/vol) resazurin (Sigma-Aldrich) solution was added to the wells to detect cell viability.

A. fumigatus B42928 = assay type: cell-based, Aspergillus fumigatus; conditions: RPMI, 48 h, 37°C, resazurin
Method: (§1) To detect antimicrobial activity of the BSF AMPs, the peptide library underwent screening against a panel of microorganisms, consisting of S. aureus ATCC 6538, E. coli ATCC 8739, P. aeruginosa ATCC 9027, C. albicans B59630, and A. fumigatus B42928. Serial dilutions of the peptides were prepared from the DMSO stock solutions in sterile demineralized water in 96-well plates using an automated liquid-handling workstation (Beckman Coulter Biomek 3000) in end volumes of 10 μL. The final in-plate concentration of DMSO was <1%. Peptide concentrations ranged from 64 μM to 0.25 μM for the first evaluation, and from 32 μM to 0.016 μM for the independent repeat. As references, doxycycline (Sigma-Aldrich; S. aureus, E. coli, P. aeruginosa), flucytosine (Sigma-Aldrich; C. albicans), and econazole (Sigma-Aldrich; A. fumigatus) were used. Suspensions of a starting inoculum of 5 × 10^3 CFU/mL (E. coli, S. aureus, C. albicans, A. fumigatus) and 5 × 10^4 CFU/mL (P. aeruginosa) were prepared in MHB (bacterial species) or RPMI medium (fungal species) and 190 μL was added to the 96-well plates. Plates were incubated for 16 h (E. coli, S. aureus, P. aeruginosa), 24 h (C. albicans), or 48 h (A. fumigatus) at 37°C. After incubation, read-out of the antimicrobial activity was performed using a resazurin assay. Then, 20 μL of a 0.01% (wt/vol) resazurin (Sigma-Aldrich) solution was added to each well and plates were incubated for 15 min (S. aureus), 30 min (E. coli), 45 min (P. aeruginosa), 4 h (C. albicans), or 17 h (A. fumigatus) to allow resazurin reduction to take place. Fluorescence was read using a microplate reader (Telix) at λexcitation = 550 nm and λemission = 590. […] MIC values were determined visually. Medium in the wells with no visual growth was plated on MHA to detect the MBC, defined as ≥3 log reduction compared with the growth control.

S. aureus ATCC 6538 = assay type: cell-based, Staphylococcus aureus; conditions: for IC50: MHB, 37°C, resazurin, 50% growth inhibition; for IC50 / MIC S. aureus ATCC 6538: 16 h; for MIC S. aureus ATCC 6538: determined visually; for MBC S. aureus ATCC 6538: wells without visual growth plated on MHA, ≥3 log reduction vs growth control
Method: as §1

E. coli ATCC 8739 = assay type: cell-based, Escherichia coli; conditions: for IC50: MHB, 37°C, resazurin
Method: as §1

P. aeruginosa ATCC 9027 = assay type: cell-based, Pseudomonas aeruginosa; conditions: for IC50: MHB, 37°C, resazurin
Method: as §1

C. albicans B59630 = assay type: cell-based, Candida albicans; conditions: RPMI, 24 h, 37°C, resazurin
Method: as §1

[2] = repeat 1, 64-0.25 μM, determined visually, 16 h
[3] = repeat 2, 32-0.016 μM, determined visually, 16 h
[4] = repeat 2, plated on MHA, ≥3 log reduction vs growth control
[5] = repeat 1, plated on MHA, ≥3 log reduction vs growth control

| Compound | MIC S. aureus ATCC 6538 (S. aureus ATCC 6538; repeat 1, 64-0.25 μM) | MIC S. aureus ATCC 6538 (S. aureus ATCC 6538; repeat 2, 32-0.016 μM) | MIC E. coli ATCC 8739 (E. coli ATCC 8739; [2]) | MIC E. coli ATCC 8739 (E. coli ATCC 8739; [3]) | MBC E. coli ATCC 8739 (E. coli ATCC 8739; [4]) | MIC P. aeruginosa ATCC 9027 (P. aeruginosa ATCC 9027; [2]) | MBC P. aeruginosa ATCC 9027 (P. aeruginosa ATCC 9027; [5]) | MBC P. aeruginosa ATCC 9027 (P. aeruginosa ATCC 9027; [4]) | MIC P. aeruginosa ATCC 9027 (P. aeruginosa ATCC 9027; [3]) | MIC P. aeruginosa ATCC 9027 (P. aeruginosa ATCC 9027; ATCC 9027, 16 h) | other results |
| --- | --- | --- | --- | --- | --- | --- | --- | --- | --- | --- | --- |
| DQSKEPFKPMERPYQRVRDAKIQGITIAQNGPNVLAITRGGLEQ [Hill-Cec6, Cecropin, C-terminal amidation] | > 64.00 µM | > 32.00 µM | > 32.00 µM | > 64.00 µM | 2.00 µM | > 32.00 µM | 16.00 µM | 2.00 µM |  |  | IC50 ([1]; repeat 1, first screening 64-0.25 μM): > 64 µM; IC50 ([1]; repeat 2, independent repeat 32-0.016 μM): > 32 µM; IC50 (A. fumigatus B42928; repeat 1, 64-0.25 μM): > 64 µM; IC50 (A. fumigatus B42928; repeat 2, 32-0.016 μM): > 32 µM; IC50 (S. aureus ATCC 6538; repeat 1, 64-0.25 μM): > 64 µM; IC50 (S. aureus ATCC 6538; repeat 2, 32-0.016 μM): > 32 µM; IC50 (E. coli ATCC 8739; repeat 1, 64-0.25 μM, 16 h): > 64 µM; IC50 (E. coli ATCC 8739; repeat 2, 32-0.016 μM, 16 h): > 32 µM; IC50 (P. aeruginosa ATCC 9027; repeat 1, 64-0.25 μM, 16 h): > 64 µM; IC50 (P. aeruginosa ATCC 9027; repeat 2, 32-0.016 μM, 16 h): > 32 µM; IC50 (C. albicans B59630; repeat 1, 64-0.25 μM): > 64 µM; IC50 (C. albicans B59630; repeat 2, 32-0.016 μM): > 32 µM |
| CC[C@H](C)[C@H](NC(=O)[C@H](CS)NC(=O)[C@H](Cc1c[nH]cn1)NC(=O)[C@H](CC(C)C)NC(=O)[C@H](C)NC(=O)[C@H](CS)NC(=O)[C@H](C)NC(=O)[C@H](C)NC(=O)[C@H](Cc1c[nH]cn1)NC(=O)CNC(=O)[C@@H](NC(=O)[C@H](CCCCN)NC(=O)[C@H](Cc1ccccc1)NC(=O)[C@@H]1CCCN1C(=O)[C@H](CO)NC(=O)[C@H](CC(C)C)NC(=O)[C@H](CC(C)C)NC(=O)[C@H](CC(=O)O)NC(=O)[C@H](CS)NC(=O)[C@@H](NC(=O)[C@H](C)N)[C@@H](C)O)C(C)C)C(=O)N[C@@H](C)C(=O)N[C@@H](CC(C)C)C(=O)NCC(=O)N[C@@H](CCCNC(=N)N)C(=O)N[C@@H](CCCNC(=N)N)C(=O)NCC(=O)NCC(=O)N[C@@H](Cc1c[nH]c2ccccc12)C(=O)N[C@@H](CS)C(=O)N[C@@H](CC(=O)O)C(=O)NCC(=O)N[C@@H](CCCNC(=N)N)C(=O)N[C@@H](C)C(=O)N[C@H](C(=O)N[C@@H](CS)C(=O)N[C@@H](CC(N)=O)C(=O)N[C@@H](CS)C(=O)N[C@@H](CCCNC(=N)N)C(=O)N[C@@H](CCCNC(=N)N)C(=O)O)C(C)C [Hill-Def4] (H-ATCDLLSPFKVGHAACALHCIALGRRGGWCDGRAVCNCRR-OH; N-terminus and C-terminus assumed) | 1.00 µM (≈ 4.26 µg/mL) | 8.00 µM (≈ 34.1 µg/mL) | > 64.00 µM | > 32.00 µM |  | > 64.00 µM |  |  | > 32.00 µM |  | bactericidal or bacteriostatic mechanism (S. aureus ATCC 6538; MBC determination): bacteriostatic; MBC S. aureus ATCC 6538 (S. aureus ATCC 6538; repeat 1): static; MBC S. aureus ATCC 6538 (S. aureus ATCC 6538; repeat 2): static |
| SWFKKVFKPVEKVGQRVRDAGIQGVAIAQQGANVLATARGGPPH-NH2 [Hill-Cec5] |  |  |  |  |  |  |  |  |  |  | MBC E. coli ATCC 8739 (E. coli ATCC 8739; ATCC 8739, 16 h): 0.50 µM; MBC P. aeruginosa ATCC 9027 (P. aeruginosa ATCC 9027; ATCC 9027, 16 h): 32.00 µM |
| GWWKRVFKPVEKLGQRVRDAGIQGLEIAQQGANVLATVRGGPPQQ-NH2 [Hill-Cec9] | > 64.00 µM | > 32.00 µM |  |  |  |  | static | 2.00 µM | 2.00 µM | 1.00 µM |  |
| RSLWKKLFKPVERAGQRIRDATIKGIVIAQQGANVLATIRGGPAIPPGQ-NH2 [Hill-Cec12] | > 64.00 µM | > 32.00 µM | 0.25 µM | 2.00 µM | 8.00 µM |  | static | 8.00 µM | 2.00 µM | 1.00 µM | MBC E. coli ATCC 8739 (E. coli ATCC 8739; ATCC 8739, 16 h): 1.00 µM |
| CC[C@H](C)[C@H](NC(=O)[C@H](CS)NC(=O)[C@H](Cc1c[nH]cn1)NC(=O)[C@H](C)NC(=O)[C@H](C)NC(=O)[C@H](CS)NC(=O)[C@H](C)NC(=O)[C@H](C)NC(=O)[C@H](Cc1c[nH]cn1)NC(=O)CNC(=O)[C@@H](NC(=O)[C@H](CCCCN)NC(=O)[C@H](Cc1ccccc1)NC(=O)[C@@H]1CCCN1C(=O)[C@H](CO)NC(=O)[C@H](CC(C)C)NC(=O)[C@H](CC(C)C)NC(=O)[C@H](CC(=O)O)NC(=O)[C@H](CS)NC(=O)[C@@H](NC(=O)[C@H](C)N)[C@@H](C)O)C(C)C)C(=O)N[C@@H](C)C(=O)N[C@@H](CCCNC(=N)N)C(=O)NCC(=O)N[C@@H](CCCCN)C(=O)N[C@@H](CCCNC(=N)N)C(=O)NCC(=O)NCC(=O)N[C@@H](Cc1c[nH]c2ccccc12)C(=O)N[C@@H](CS)C(=O)N[C@@H](CC(=O)O)C(=O)N[C@@H](CCCCN)C(=O)N[C@@H](CCCNC(=N)N)C(=O)N[C@@H](C)C(=O)N[C@H](C(=O)N[C@@H](CS)C(=O)N[C@@H](CC(N)=O)C(=O)N[C@@H](CS)C(=O)N[C@@H](CCCNC(=N)N)C(=O)N[C@@H](CCCCN)C(=O)O)C(C)C [Hill-Def2a] (H-ATCDLLSPFKVGHAACAAHCIARGKRGGWCDKRAVCNCRK-OH; N-terminus and C-terminus assumed) | 0.25 µM (≈ 1.07 µg/mL) | 2.00 µM (≈ 8.55 µg/mL) | > 64.00 µM | > 32.00 µM |  | > 64.00 µM |  |  | > 32.00 µM |  | MBC S. aureus ATCC 6538 (S. aureus ATCC 6538; repeat 1): static; MBC S. aureus ATCC 6538 (S. aureus ATCC 6538; repeat 2): static |
| GWWKRVFKPVEKFGQRVRDAGIQGIEIAQQGANVLATARGGPPQQ-NH2 [Hill-Cec8] | > 64.00 µM | > 32.00 µM |  | 2.00 µM | 8.00 µM |  | 64.00 µM | 8.00 µM | 8.00 µM | 4.00 µM | MBC E. coli ATCC 8739 (E. coli ATCC 8739; ATCC 8739, 16 h): 1.00 µM; MIC E. coli ATCC 8739 (E. coli ATCC 8739; ATCC 8739, 16 h): 1.00 µM |
| GWWKRVFKPVEKLGQRVRDAGIQGLEIAQQGANVLATARGGPPQQ-NH2 [Hill-Cec3] | > 64.00 µM | > 32.00 µM | 1.00 µM | 0.50 µM | 32.00 µM | 4.00 µM | 16.00 µM | 2.00 µM | 2.00 µM |  | MBC E. coli ATCC 8739 (E. coli ATCC 8739; [5]): 1.00 µM |
| KSWWKKVFKPVERAGQRIRDASIKGLAVAQQGANVLSTIRGGPPVVAPPPQV-NH2 [Hill-Cec13] | > 64.00 µM | > 32.00 µM |  |  |  |  | 64.00 µM | 2.00 µM | 2.00 µM | 1.00 µM |  |
| GWWKRVFKPVERLGQRVRDAGIQGLQIAQQGANVLATVRGGPPQQ-NH2 [Hill-Cec4] | > 64.00 µM | > 32.00 µM | 1.00 µM | 2.00 µM | 2.00 µM | 1.00 µM | 16.00 µM | 2.00 µM | 2.00 µM |  | MBC E. coli ATCC 8739 (E. coli ATCC 8739; [5]): static |
| GWWKRVFKPVEKFGQRVRDAGVQGIAIAQQGANVLATARGGPPQQ-NH2 [Hill-Cec2] | > 64.00 µM | > 32.00 µM | 1.00 µM | 2.00 µM | 2.00 µM | 4.00 µM | 16.00 µM | 2.00 µM | 2.00 µM |  | MBC E. coli ATCC 8739 (E. coli ATCC 8739; [5]): 1.00 µM |
